We go through one compound from patent US20080051463A1, “ANTHRACENE COMPOUNDS AND THEIR USE FOR TREATING BENIGN AND MALIGNANT TUMOR DISORDERS” (AETERNA ZENTARIS GmbH, priority 2006, published 2008).

What is called EC50 is the concentration that produces a half-maximal response. The Inhibition is the share of the control response that was lost under treatment. High values mean strong suppression, low ones little suppression.

The test system of test [1] is RKOp27 human colon carcinoma cells. Description: Proliferation test, RKOp27 cell system without p27kiP1 expression. Format: cell-based. The conditions noted are these: RKOp27 without expression of p27kiP1. From the text:
(§1) The antiproliferative activity of the compounds 1, 2, 4, 6, 7, 9, 10, 11, 12 and 13 according to the invention was investigated in a proliferation test performed on established tumor cell lines (D. A. Scuderio et al. Cancer Res. 1988, 48: 4827-4833).
(§2) The test used determines the cellular dehydrogenase activity and makes it possible to determine cell viability and determine cell number indirectly.
(§3) The cell lines used are the human cervical carcinoma cell line KB/HeLa (ATCC CCL17), the ovarian adenocarcinoma cell line SKOV-3 (ATCC HTB77), the human glioblastoma cell line SF-268 (NCI-503138) and the lung carcinoma cell line NCI-H460 (NCI-503473). In addition, an RKOp27 cell system was used for investigating the cell cycle-specific effect of the substance (M. Schmidt et al. Oncogene 2000, 19(20): 2423-9).
(§4) RKO is a human colon carcinoma line in which expression of the cell cycle inhibitor p27^kiP1 can be induced using the ecdysone expression system and lead to cell cycle arrest specifically in […].
(§5) By contrast, cell cycle-specific substances, such as, for example, tubulin inhibitors, are only cytotoxic when cells are not arrested and the cell cycle is passed through.

Test [2] relates to human glioblastoma cell line SF-268. The experiment in a line: Proliferation test (cellular dehydrogenase activity), SF-268. In kind it is cell-based.
From the text: as §1, §2, §3

The test system of test [3] is T1, porcine brain tubulin.
T1 construct: In addition to tubulin, the protein used comprises about 15% of associated proteins (MAPs)
Description: Inhibition of the polymerization of porcine brain tubulin (turbidimetric). Format: biochemical. The conditions noted are these: porcine brain tubulin with about 15% MAPs, GTP, 37° C. The protocol: b) In an in vitro test, the compounds 1, 2, 4 and 7 were tested for inhibition of the polymerization of porcine brain tubulin. In this test, tubulin purified by polymerization and depolymerization cycles is used (Shelanski et al. Proc. Natl. Acad. Sci. U.S.A. 1973, 70, 765-768 modified according to Vater et al. Acta Histochem. Suppl. 1986, 33, 123-129), which is polymerized by addition of GTP and heating to 37° C. In addition to tubulin, the protein used comprises about 15% of associated proteins (MAPs). The measurement values were determined turbidimetrically according to Gaskin et al. J. Mol. Biol. 89 (1974) 737-755.
Table 3 states the EC50 value of the polymerization inhibition.

Test [4] concerns RKOp27 human colon carcinoma cells, p27kiP1 induced. Description: Proliferation test, RKOp27 cell system with induced p27kiP1 expression. In kind it is cell-based. The settings on record: RKOp27 with induced expression of p27kiP1, read-out: RKOP27ind EC50.
From the text: as §1, §2, §3, §4, §5

The test system of test [5] is bovine tubulin. Description: Inhibition of the polymerization of bovine tubulin (in vitro). In kind it is biochemical. From the text:
In this test, tubulin purified by polymerization and depolymerization cycles is used, which is polymerized by addition of GTP and heating.
Table 1 states the %-inhibition values and Table 2 states the EC50 values of polymerization inhibition of tubulin with 30% associated proteins (MAPs).

The test system of test [6] is lung carcinoma cell line NCI-H460. The experiment in a line: Proliferation test (cellular dehydrogenase activity), NCI-H460. Format: cell-based. The settings on record: Homo sapiens.
From the text: as §1, §2, §3

Converted amounts (≈) assume the structure as drawn. “And” between values parts separate entries of the source, which are not always exact repeats. Equal entries are not always repeated.

As for `O=C(C=C1c2ccccc2C(=O)c2ccccc21)c1ccc(O)c(O)c1` [Compound 1, 10-[2-(3,4-dihydroxy-phenyl)-2-oxo-ethylidene]-10H-anthracen-9-one], the EC50 is 0.083 µg/mL (≈ 0.242 µM) in test [1], 0.076 µg/mL (≈ 0.222 µM) in test [2], above 3.16 µg/mL in test [4] and 0.146 µg/mL (≈ 0.426 µM) in test [6]. Also, the “EC50 of the polymerization inhibition” value in test [3] is 3.0 µg/mL. In addition, the “Inhibition at 10 μg/ml [%]” value in test [5] (10 μg/ml, tubulin with 30% associated proteins (MAPs), repeat values) is 98.2% and 83.0% and 86.9% and 79.7%. For the same compound, the “EC50 of polymerization inhibition of tubulin” value in test [5] (bovine tubulin with 30% associated proteins (MAPs)) was 7.15 µg/mL and 8.02 µg/mL.
